Some test systems named below: EKVX NSCLC; IGROV1 ovarian; SNB-19 CNS; LOX IMVI melanoma; OVCAR-4 ovarian; HCT-116 colon; COLO 205 colon; UO-31 renal; HL-60(TB) leukemia; HOP-62 NSCLC; HOP-92 NSCLC.
What all share (assay): NCI-60 cell line screen, 48 h

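Five compound concentrations were applied to cells in 96-well plates for 48 hours; endpoints were derived by simple linear interpolation of the resulting dose-response curve. GI50 = concentration required for 50% inhibition of growth. At the TGI there is no net growth.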

On to `COc1ccc2nc3ccccc3c(NCCCCCCN(CCCl)CCCl)c2c1`, for which the TGI with EKVX NSCLC stood at 4.22 µM; in the test with IGROV1 ovarian, 3.85 µM; in the test with SNB-19 CNS, 3.45 µM; in the test on LOX IMVI melanoma, 0.0394 µM; with OVCAR-4 ovarian, 1.05 µM; in the test with HCT-116 colon it was 1.39 µM. Moreover, the TGI turned out to be 0.107 µM in the test on COLO 205 colon, 0.513 µM in the test with UO-31 renal, 0.592 µM with HL-60(TB) leukemia and 2.42 µM in the test on HOP-62 NSCLC.
Consider `COC(=O)C1=C(C(=O)OC)SC2(S1)C1=C(CCCC1)SC(C(=O)OC)=C2C(=O)OC`, for which the TGI in the test on EKVX NSCLC was found to be 26.6 µM; in the test with IGROV1 ovarian it was 20.6 µM; with SNB-19 CNS, 30.2 µM; with LOX IMVI melanoma, 5.3 µM; in the test with OVCAR-4 ovarian it was 25.3 µM; in the test on HCT-116 colon, 2.92 µM. For the same compound, the TGI in the test on COLO 205 colon is 23.2 µM; in the test with HOP-92 NSCLC it was 18.3 µM; with UO-31 renal, 10.9 µM; in the test with HL-60(TB) leukemia, over 100 µM; in the test with HOP-62 NSCLC, 17.8 µM.
Turning to `Nc1ccc2[nH]c3c(-c4ccccc4)nccc3c2c1`, the TGI is over 100 µM in the test with EKVX NSCLC; over 100 µM in the test on IGROV1 ovarian; over 100 µM with SNB-19 CNS; over 100 µM in the test on LOX IMVI melanoma; over 75.5 µM in the test with OVCAR-4 ovarian; over 100 µM with HCT-116 colon. Further, the TGI with COLO 205 colon is over 100 µM; in the test with HOP-92 NSCLC it was over 100 µM; with UO-31 renal, over 100 µM; in the test on HL-60(TB) leukemia it was 38.2 µM; in the test on HOP-62 NSCLC it was over 100 µM.
On to `COc1cc(Nc2c3ccccc3nc3ccccc23)ccc1NS(C)(=O)=O`, for which the TGI in the test on EKVX NSCLC is 23.1 µM; in the test on IGROV1 ovarian, 36.3 µM; in the test with SNB-19 CNS, 48 µM; in the test on LOX IMVI melanoma it was over 100 µM; in the test on OVCAR-4 ovarian, 12.3 µM; in the test on HCT-116 colon it was over 100 µM. Also, the TGI in the test with COLO 205 colon was 16.1 µM; in the test with UO-31 renal it was 16.9 µM; in the test with HL-60(TB) leukemia, 30.1 µM; in the test with HOP-62 NSCLC it was 24.3 µM.
On to `O=C(NC(Cc1ccc(I)cc1)C(=O)O)c1ccc(Br)cc1` (stereo unspecified), for which the TGI is 31 µM in the test with EKVX NSCLC; over 100 µM in the test with IGROV1 ovarian; over 100 µM with SNB-19 CNS; over 100 µM in the test on LOX IMVI melanoma; over 100 µM in the test with OVCAR-4 ovarian; over 100 µM in the test with HCT-116 colon. Besides, the TGI with COLO 205 colon, with HOP-92 NSCLC, with UO-31 renal, in the test with HL-60(TB) leukemia and in the test with HOP-62 NSCLC was over 100 µM each time.
Turning to `C[C@]12CCc3nc(Nc4ccccc4)sc3C1=CC[C@@H]1[C@@H]2CC[C@]2(C)/C(=N/NC(N)=S)CC[C@@H]12`, the GI50 is 19.2 µM in the test on EKVX NSCLC; 3.89 µM with IGROV1 ovarian; 10.3 µM in the test with SNB-19 CNS; 7.86 µM in the test on OVCAR-4 ovarian; 4.49 µM with COLO 205 colon; 5.59 µM with HOP-92 NSCLC. Further, the GI50 in the test on UO-31 renal was 3.71 µM; with HL-60(TB) leukemia, 3.03 µM; with HOP-62 NSCLC, 17.6 µM. The TGI in the test on EKVX NSCLC, in the test with IGROV1 ovarian, in the test on SNB-19 CNS, with OVCAR-4 ovarian, with COLO 205 colon and in the test on HOP-92 NSCLC was over 100 µM in each case. Moreover, the results for the TGI in the test with UO-31 renal, in the test on HL-60(TB) leukemia and with HOP-62 NSCLC were over 100 µM, 17 µM and over 100 µM, respectively.
Turning to `COc1ccc(/C(Cl)=C(\C=O)c2ccc(F)cc2)cc1OC`, the TGI is 65.4 µM with EKVX NSCLC; over 100 µM with IGROV1 ovarian; over 100 µM with SNB-19 CNS; 30.7 µM in the test with LOX IMVI melanoma; 31 µM in the test with HCT-116 colon; 36.8 µM in the test with COLO 205 colon. The TGI in the test on HOP-92 NSCLC came out at 29.3 µM; in the test with UO-31 renal, 61.1 µM; with HL-60(TB) leukemia, 37.5 µM; with HOP-62 NSCLC, 52.6 µM.
For the compound `N=C(N)c1ccc(N=Nc2c(O)ccc3c2[nH]c2ccccc23)cc1`, the TGI is over 100 µM with EKVX NSCLC; over 100 µM in the test on IGROV1 ovarian; over 100 µM with SNB-19 CNS; over 28.5 µM with OVCAR-4 ovarian; 37.5 µM in the test on HCT-116 colon; over 100 µM in the test on COLO 205 colon. In addition, the TGI in the test on HOP-92 NSCLC was over 100 µM; in the test on UO-31 renal it was over 90.9 µM; in the test with HL-60(TB) leukemia it was over 100 µM; in the test on HOP-62 NSCLC, over 100 µM.

For the origin of these results see PubChem BioAssay (NCI).
